Test results reported in ChEMBL document CHEMBL1201862, “PubChem BioAssay data set” (2004).
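All cell lines were grown in 96-well plates and treated with compound for 48 hours. Abbreviation: GI50, concentration required for 50% inhibition of growth.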 Activity calls are given as the source filed them. Cut-off read from the data, not from the text of the source: active = GI50 up to about 1.1 µM and inactive = higher.

Key:
Assay in all cases: NCI-60 cell line screen, 48 h
[1] = system: EKVX
[2] = system: 786-0
[3] = system: ACHN
[4] = system: MDA-MB-231
[5] = system: HOP-92
[6] = system: MOLT-4
[7] = system: UACC-257
[8] = system: SK-MEL-5
[9] = system: SN12C
[10] = system: COLO 205
[11] = system: SK-MEL-2
[12] = system: SNB-19
[13] = system: IGROV-1
[14] = system: OVCAR-3
[15] = system: TK-10
[16] = system: CAKI-1
[17] = system: HCC 2998
[18] = system: HL-60
[19] = system: OVCAR-4
[20] = system: KM12
[21] = system: SF-295
[22] = system: RPMI-8226
[23] = system: PC-3
[24] = system: NCI-H460
[25] = system: SK-OV-3
[26] = system: CCRF-CEM
[27] = system: MCF7
[28] = system: HOP-62
[29] = system: OVCAR-8
[30] = system: NCI-H23
[31] = system: Malme-3M
[32] = system: UACC-62
[33] = system: DU-145
[34] = system: MDA-MB-435
[35] = system: MDA-N
[36] = system: SK-MEL-28
[37] = system: M14
[38] = system: Hs-578T
[39] = system: NCI/ADR-RES
[40] = system: SR
[41] = system: U-251
[42] = system: K562
[43] = system: HT-29
[44] = system: SW-620
[45] = system: OVCAR-5
[46] = system: HCT-116
[47] = system: SF-268
[48] = system: UO-31
[49] = system: LOX IMVI
[50] = system: HCT-15
[51] = system: SF-539
[52] = system: NCI-H226
[53] = system: T47D
[54] = system: SNB-75
[55] = system: RXF 393
[56] = system: A549
[57] = system: A498
[58] = system: BT-549
[59] = system: NCI-H522

## NC(=O)c1ncn(C2C=CC(CP(=O)(O)O)C2)c1N (centres undefined)
[1]
  GI50: > 100 µM (inactive)
[2]
  GI50: > 100 µM (inactive)
[3]
  GI50: > 100 µM (inactive)
[4]
  GI50: > 100 µM (inactive)
[5]
  GI50: > 100 µM (inactive)
[6]
  GI50: > 100 µM (inactive)
[7]
  GI50: > 100 µM (inactive)
[8]
  GI50: > 100 µM (inactive)
[9]
  GI50: > 100 µM (inactive)
[10]
  GI50: > 100 µM (inactive)
[11]
  GI50: > 100 µM (inactive)
[12]
  GI50: > 100 µM (inactive)
[13]
  GI50: > 100 µM (inactive)
[14]
  GI50: > 100 µM (inactive)
[15]
  GI50: > 100 µM (inactive)
[16]
  GI50: > 100 µM (inactive)
[17]
  GI50: > 100 µM (inactive)
[18]
  GI50: > 100 µM (inactive)
[19]
  GI50: > 100 µM (inactive)
[20]
  GI50: > 100 µM (inactive)
[21]
  GI50: > 100 µM (inactive)
[22]
  GI50: > 100 µM (inactive)
[23]
  GI50: > 100 µM (inactive)
[24]
  GI50: > 100 µM (inactive)
[25]
  GI50: > 100 µM (inactive)
[26]
  GI50: > 100 µM (inactive)
[27]
  GI50: > 100 µM (inactive)
[28]
  GI50: > 100 µM (inactive)
[29]
  GI50: > 100 µM (inactive)
[30]
  GI50: > 100 µM (inactive)
[31]
  GI50: > 100 µM (inactive)
[32]
  GI50: > 100 µM (inactive)
[33]
  GI50: > 100 µM (inactive)
[34]
  GI50: > 100 µM (inactive)
[35]
  GI50: > 100 µM (inactive)
[36]
  GI50: > 100 µM (inactive)
[37]
  GI50: > 100 µM (inactive)
[38]
  GI50: > 100 µM (inactive)
[39]
  GI50: > 100 µM (inactive)
[40]
  GI50: > 100 µM (inactive)
[41]
  GI50: > 100 µM (inactive)
[42]
  GI50: > 100 µM (inactive)
[43]
  GI50: > 100 µM (inactive)
[44]
  GI50: > 100 µM (inactive)
[45]
  GI50: > 100 µM (inactive)
[46]
  GI50: > 100 µM (inactive)
[47]
  GI50: > 100 µM (inactive)
[48]
  GI50: > 100 µM (inactive)
[49]
  GI50: > 100 µM (inactive)
[50]
  GI50: > 100 µM
[51]
  GI50: > 100 µM (inactive)
[52]
  GI50: > 100 µM (inactive)
[53]
  GI50: > 100 µM (inactive)
[54]
  GI50: > 100 µM (inactive)
[55]
  GI50: > 100 µM (inactive)
[56]
  GI50: > 100 µM (inactive)

## COC(=O)Cc1c(-c2c(CC(=O)OC)c3ccccc3n2C2OC(COC(C)=O)C(OC(C)=O)C(OC(C)=O)C2OC(C)=O)[nH]c2ccccc12 (centres undefined)
[1]
  GI50: > 100 µM (inactive)
[4]
  GI50: 43.2 µM (inactive)
[5]
  GI50: > 100 µM (inactive)
[6]
  GI50: > 100 µM (inactive)
[7]
  GI50: > 100 µM (inactive)
[8]
  GI50: > 100 µM (inactive)
[9]
  GI50: > 100 µM (inactive)
[10]
  GI50: > 100 µM (inactive)
[11]
  GI50: > 100 µM (inactive)
[12]
  GI50: > 100 µM (inactive)
[13]
  GI50: 74.6 µM (inactive)
[14]
  GI50: > 100 µM (inactive)
[57]
  GI50: 52.4 µM (inactive)
[15]
  GI50: > 100 µM (inactive)
[16]
  GI50: > 100 µM (inactive)
[17]
  GI50: > 100 µM (inactive)
[19]
  GI50: > 100 µM (inactive)
[20]
  GI50: 85.3 µM (inactive)
[21]
  GI50: 90.8 µM (inactive)
[58]
  GI50: > 100 µM (inactive)
[22]
  GI50: > 100 µM (inactive)
[23]
  GI50: > 100 µM (inactive)
[24]
  GI50: > 100 µM (inactive)
[25]
  GI50: > 100 µM (inactive)
[26]
  GI50: > 100 µM (inactive)
[28]
  GI50: > 100 µM (inactive)
[30]
  GI50: > 100 µM (inactive)
[59]
  GI50: 52 µM (inactive)
[31]
  GI50: > 100 µM (inactive)
[32]
  GI50: > 100 µM (inactive)
[33]
  GI50: > 100 µM (inactive)
[34]
  GI50: > 100 µM (inactive)
[35]
  GI50: > 100 µM (inactive)
[36]
  GI50: > 100 µM (inactive)
[37]
  GI50: > 100 µM (inactive)
[40]
  GI50: > 100 µM (inactive)
[41]
  GI50: > 100 µM (inactive)
[43]
  GI50: > 100 µM (inactive)
[44]
  GI50: > 100 µM (inactive)
[45]
  GI50: > 100 µM (inactive)
[46]
  GI50: > 100 µM (inactive)
[47]
  GI50: > 100 µM (inactive)
[48]
  GI50: > 100 µM (inactive)
[50]
  GI50: > 100 µM
[56]
  GI50: > 100 µM (inactive)

## Oc1ccc(/C=N/c2nccs2)c(O)c1
[1]
  GI50: > 100 µM (inactive)
[2]
  GI50: > 100 µM (inactive)
[3]
  GI50: > 100 µM (inactive)
[4]
  GI50: > 100 µM (inactive)
[7]
  GI50: > 100 µM (inactive)
[8]
  GI50: > 100 µM (inactive)
[10]
  GI50: 33.3 µM (inactive)
[12]
  GI50: > 100 µM (inactive)
[13]
  GI50: > 100 µM (inactive)
[14]
  GI50: > 100 µM (inactive)
[15]
  GI50: > 100 µM (inactive)
[16]
  GI50: > 100 µM (inactive)
[17]
  GI50: 30.2 µM (inactive)
[20]
  GI50: 16 µM (inactive)
[21]
  GI50: > 100 µM (inactive)
[58]
  GI50: > 100 µM (inactive)
[23]
  GI50: > 100 µM (inactive)
[24]
  GI50: > 100 µM (inactive)
[25]
  GI50: > 100 µM (inactive)
[27]
  GI50: 64 µM (inactive)
[28]
  GI50: > 100 µM (inactive)
[29]
  GI50: > 100 µM (inactive)
[30]
  GI50: > 100 µM (inactive)
[59]
  GI50: > 100 µM (inactive)
[31]
  GI50: > 100 µM (inactive)
[32]
  GI50: > 100 µM (inactive)
[33]
  GI50: > 100 µM (inactive)
[35]
  GI50: > 100 µM (inactive)
[37]
  GI50: > 100 µM (inactive)
[38]
  GI50: > 100 µM (inactive)
[39]
  GI50: > 100 µM (inactive)
[43]
  GI50: > 100 µM (inactive)
[45]
  GI50: > 100 µM (inactive)
[46]
  GI50: > 100 µM (inactive)
[47]
  GI50: > 100 µM (inactive)
[48]
  GI50: > 100 µM (inactive)
[49]
  GI50: > 100 µM (inactive)
[50]
  GI50: > 100 µM
[51]
  GI50: > 100 µM (inactive)
[52]
  GI50: > 100 µM (inactive)
[54]
  GI50: > 100 µM (inactive)
[55]
  GI50: > 100 µM (inactive)
[56]
  GI50: > 100 µM (inactive)
